Assay: Gravimetric vapor sorption (GVS)
Assay type: physicochemical
Conditions: 25° C.
Description: GVS experiments were conducted on a Surface Measurement Systems DVS-Advantage. The experiments were performed at 25° C. The instrument was operated in step mode and the relative humidity was increased in 10% RH increments from 0% RH to 90% RH with an extra step at 75% RH, then decreased from 90% RH to 0% RH with an extra step at 75% RH. The mass equilibrium criterion was set at 0.005% change in mass over time (dm/dt). A minimum step time of 15 minutes and a maximum step time of 240 minutes were specified.

hygroscopicity (GVS, 0-90% RH): non-hygroscopic solid
moisture uptake (GVS, between 0-90% RH): 0.1%
change in crystal form after the GVS test (after GVS cycle 0-90-0% RH): No change in crystal form was observed
Structure (SMILES): CCN(CC)CC#CCOC(=O)[C@](O)(c1ccccc1)C1CCCCC1 [Form A, (R)-oxybutynin D-malate]
